These results are taken from publication PMC3759966 (The Biochemical journal, 2009).

As a reminder, the IC50 is the midpoint of a concentration-inhibition curve.

One test addresses T1, SGK1 (Homo sapiens, UniProt O00141).
T1 sequence (O00141 1-431): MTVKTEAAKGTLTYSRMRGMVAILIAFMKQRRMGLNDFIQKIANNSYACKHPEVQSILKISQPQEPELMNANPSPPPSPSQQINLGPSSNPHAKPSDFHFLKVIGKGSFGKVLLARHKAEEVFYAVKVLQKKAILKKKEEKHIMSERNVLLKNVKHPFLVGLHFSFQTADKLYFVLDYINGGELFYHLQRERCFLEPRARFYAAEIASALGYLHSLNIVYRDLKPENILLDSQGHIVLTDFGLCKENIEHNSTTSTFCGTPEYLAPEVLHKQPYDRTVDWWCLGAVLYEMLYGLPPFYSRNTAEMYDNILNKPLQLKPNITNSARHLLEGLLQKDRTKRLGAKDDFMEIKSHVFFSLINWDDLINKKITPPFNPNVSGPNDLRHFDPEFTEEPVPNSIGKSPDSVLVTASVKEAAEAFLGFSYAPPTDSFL
Nature of the test: Kinase profiling panel. The format is biochemical. Conditions: read-out: percentage of kinase activity compared with control.

The next test addresses PKCα (Homo sapiens, UniProt P17252). In words: Kinase profiling panel. The format is biochemical. The conditions noted are these: read-out: percentage of kinase activity compared with control.
The next test has as its target SmMLCK (Homo sapiens, UniProt Q15746). Nature of the test: Kinase profiling panel. The conditions noted are these: read-out: percentage of kinase activity compared with control. The format is biochemical.
A further test concerns the target PHK (Homo sapiens, UniProt Q16816). Nature of the test: Kinase profiling panel. Format: biochemical. Conditions: read-out: percentage of kinase activity compared with control.
The next test addresses Aurora B kinase (Homo sapiens, UniProt Q96GD4). Nature of the test: Kinase profiling panel. The format is biochemical. Conditions: read-out: percentage of kinase activity compared with control.
Another test deals with AMPK. In words: Kinase profiling panel. The format is biochemical. The conditions noted are these: 0.1 μM inhibitor.
The target of another test is T2, BRSK2 (Homo sapiens, UniProt Q8IWQ3).
T2 sequence (Q8IWQ3 1-736): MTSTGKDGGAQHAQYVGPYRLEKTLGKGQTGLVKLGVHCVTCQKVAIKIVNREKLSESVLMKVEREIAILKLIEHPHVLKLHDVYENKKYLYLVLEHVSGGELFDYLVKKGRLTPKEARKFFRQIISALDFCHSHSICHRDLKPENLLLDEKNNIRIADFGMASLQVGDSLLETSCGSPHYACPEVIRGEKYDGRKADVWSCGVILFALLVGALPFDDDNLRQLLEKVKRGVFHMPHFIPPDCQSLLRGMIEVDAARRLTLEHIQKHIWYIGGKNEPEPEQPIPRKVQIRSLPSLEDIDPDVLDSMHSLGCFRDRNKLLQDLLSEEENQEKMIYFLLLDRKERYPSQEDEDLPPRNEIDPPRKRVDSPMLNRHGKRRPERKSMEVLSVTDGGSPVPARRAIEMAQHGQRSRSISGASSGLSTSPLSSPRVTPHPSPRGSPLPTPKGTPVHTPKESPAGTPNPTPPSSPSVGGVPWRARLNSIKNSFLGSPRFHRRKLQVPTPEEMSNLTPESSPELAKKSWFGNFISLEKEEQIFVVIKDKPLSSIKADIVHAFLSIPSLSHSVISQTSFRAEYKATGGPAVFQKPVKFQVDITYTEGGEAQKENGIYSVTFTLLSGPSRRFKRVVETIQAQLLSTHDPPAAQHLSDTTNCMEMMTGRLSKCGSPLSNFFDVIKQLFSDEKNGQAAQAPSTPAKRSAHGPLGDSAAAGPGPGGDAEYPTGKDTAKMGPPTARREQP
Nature of the test: Kinase profiling panel. The format is biochemical. Conditions: read-out: percentage of kinase activity compared with control.

Another test concerns the target CK2 (Homo sapiens, UniProt P68400). In words: Kinase profiling panel. Format: biochemical. The conditions noted are these: read-out: percentage of kinase activity compared with control.
The target in another test is T3, TTK (Homo sapiens, UniProt P33981).
T3 sequence (P33981 1-857): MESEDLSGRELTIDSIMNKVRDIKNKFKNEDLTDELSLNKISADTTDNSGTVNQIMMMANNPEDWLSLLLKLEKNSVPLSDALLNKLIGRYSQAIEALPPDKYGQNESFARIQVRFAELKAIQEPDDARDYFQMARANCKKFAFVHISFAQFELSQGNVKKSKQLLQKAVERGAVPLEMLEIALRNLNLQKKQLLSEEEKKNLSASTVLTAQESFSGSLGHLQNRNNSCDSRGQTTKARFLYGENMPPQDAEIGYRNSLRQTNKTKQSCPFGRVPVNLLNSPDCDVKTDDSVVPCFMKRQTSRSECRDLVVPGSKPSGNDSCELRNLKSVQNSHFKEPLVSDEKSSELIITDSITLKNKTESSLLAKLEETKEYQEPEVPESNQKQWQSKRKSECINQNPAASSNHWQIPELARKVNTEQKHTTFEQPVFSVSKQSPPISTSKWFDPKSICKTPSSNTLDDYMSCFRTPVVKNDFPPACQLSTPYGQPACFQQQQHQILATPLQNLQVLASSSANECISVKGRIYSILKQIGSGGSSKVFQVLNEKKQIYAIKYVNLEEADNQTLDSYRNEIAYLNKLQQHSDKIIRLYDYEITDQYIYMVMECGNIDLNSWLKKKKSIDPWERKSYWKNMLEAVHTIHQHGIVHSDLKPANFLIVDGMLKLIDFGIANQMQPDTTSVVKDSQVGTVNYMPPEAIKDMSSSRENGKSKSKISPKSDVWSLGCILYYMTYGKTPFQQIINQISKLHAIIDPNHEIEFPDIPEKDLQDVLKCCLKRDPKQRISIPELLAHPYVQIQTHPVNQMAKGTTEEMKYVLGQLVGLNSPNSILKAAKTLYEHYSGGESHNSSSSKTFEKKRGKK
Nature of the test: Kinase profiling panel. Conditions: read-out: percentage of kinase activity compared with control. The format is biochemical.

Another test deals with FGFR1 (Homo sapiens, UniProt P11362). Nature of the test: Kinase profiling panel. The format is biochemical. Conditions: read-out: percentage of kinase activity compared with control.
FGFR1, sequence (P11362 22-822): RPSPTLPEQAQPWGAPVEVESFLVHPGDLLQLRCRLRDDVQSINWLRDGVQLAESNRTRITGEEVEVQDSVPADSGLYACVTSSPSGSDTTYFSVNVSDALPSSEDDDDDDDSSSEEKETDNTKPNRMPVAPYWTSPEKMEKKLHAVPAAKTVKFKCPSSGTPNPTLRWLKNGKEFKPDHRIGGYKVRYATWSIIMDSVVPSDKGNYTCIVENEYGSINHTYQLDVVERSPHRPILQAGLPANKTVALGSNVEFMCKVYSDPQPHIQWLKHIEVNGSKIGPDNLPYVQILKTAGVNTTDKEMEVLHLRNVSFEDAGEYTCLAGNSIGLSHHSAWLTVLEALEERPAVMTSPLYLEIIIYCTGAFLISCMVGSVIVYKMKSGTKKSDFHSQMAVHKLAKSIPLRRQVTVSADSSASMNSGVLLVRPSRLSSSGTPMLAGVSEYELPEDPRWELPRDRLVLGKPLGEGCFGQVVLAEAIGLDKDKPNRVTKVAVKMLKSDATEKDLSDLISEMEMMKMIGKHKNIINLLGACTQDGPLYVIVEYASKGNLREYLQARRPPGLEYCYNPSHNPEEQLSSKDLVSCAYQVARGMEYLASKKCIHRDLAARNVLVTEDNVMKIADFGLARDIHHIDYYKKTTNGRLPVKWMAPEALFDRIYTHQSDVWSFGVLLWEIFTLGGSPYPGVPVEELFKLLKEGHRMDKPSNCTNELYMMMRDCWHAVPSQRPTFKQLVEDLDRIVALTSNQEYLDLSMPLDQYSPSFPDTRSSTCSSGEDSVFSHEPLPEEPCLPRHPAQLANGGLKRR
The target in another test is IRR (Homo sapiens, UniProt P14616). In words: Kinase profiling panel. Format: biochemical. Conditions: read-out: percentage of kinase activity compared with control.
IRR, sequence (P14616 27-1297): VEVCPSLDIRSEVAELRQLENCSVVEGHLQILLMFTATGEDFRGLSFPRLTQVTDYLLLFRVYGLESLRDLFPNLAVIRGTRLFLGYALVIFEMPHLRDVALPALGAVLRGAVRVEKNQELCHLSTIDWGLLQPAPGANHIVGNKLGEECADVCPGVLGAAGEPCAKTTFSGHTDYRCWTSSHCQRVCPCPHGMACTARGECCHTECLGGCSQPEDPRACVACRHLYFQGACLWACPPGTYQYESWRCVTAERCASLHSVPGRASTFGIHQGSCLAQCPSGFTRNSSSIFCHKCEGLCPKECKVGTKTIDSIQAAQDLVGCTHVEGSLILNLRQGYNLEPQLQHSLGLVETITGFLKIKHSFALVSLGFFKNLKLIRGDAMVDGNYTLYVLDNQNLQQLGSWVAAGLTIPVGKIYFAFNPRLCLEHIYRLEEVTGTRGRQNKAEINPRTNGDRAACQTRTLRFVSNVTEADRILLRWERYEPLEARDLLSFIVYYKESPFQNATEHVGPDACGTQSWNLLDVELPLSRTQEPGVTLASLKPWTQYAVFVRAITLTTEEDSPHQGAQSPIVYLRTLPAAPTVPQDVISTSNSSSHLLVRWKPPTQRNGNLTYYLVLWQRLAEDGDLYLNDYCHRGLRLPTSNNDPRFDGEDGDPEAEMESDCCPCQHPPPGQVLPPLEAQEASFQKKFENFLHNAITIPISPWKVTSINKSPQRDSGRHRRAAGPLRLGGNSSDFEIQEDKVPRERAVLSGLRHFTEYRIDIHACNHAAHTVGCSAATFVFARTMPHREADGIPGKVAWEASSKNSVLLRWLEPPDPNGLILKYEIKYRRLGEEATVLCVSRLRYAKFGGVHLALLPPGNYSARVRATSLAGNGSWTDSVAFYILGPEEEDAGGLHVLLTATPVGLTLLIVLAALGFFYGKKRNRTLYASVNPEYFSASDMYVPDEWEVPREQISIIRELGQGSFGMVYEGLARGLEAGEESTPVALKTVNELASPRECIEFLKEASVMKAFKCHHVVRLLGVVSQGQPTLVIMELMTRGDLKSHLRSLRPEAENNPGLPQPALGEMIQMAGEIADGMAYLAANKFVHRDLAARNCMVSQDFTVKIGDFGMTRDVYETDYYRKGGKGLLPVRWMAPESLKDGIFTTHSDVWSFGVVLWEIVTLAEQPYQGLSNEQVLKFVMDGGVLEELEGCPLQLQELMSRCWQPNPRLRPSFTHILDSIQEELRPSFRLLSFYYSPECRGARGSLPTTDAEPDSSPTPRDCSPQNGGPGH
The next test concerns the target IGF-1R (Homo sapiens, UniProt P08069). In words: Kinase profiling panel. The format is biochemical. Conditions: read-out: percentage of kinase activity compared with control.
In test [1] the test system is ERM protein phosphorylation (site equivalent to Thr567 of ezrin). In words: ERM protein phosphorylation in HEK-293 cells. Format: cell-based, human. Conditions: 10 μM, 1 h; in the presence or absence of G14V-Rho.
Test [2] concerns the target endogenous LRRK2 from Swiss-3T3 cells (Mus musculus, UniProt Q5S006). In words: Kinase assay of immunoprecipitated endogenous LRRK2 with Nictide. The conditions noted are these: Swiss-3T3 immunoprecipitates, Nictide substrate. The format is biochemical.
The subject of test [3] is panel of 85 protein kinases. In words: Selectivity over kinase panel. Format: biochemical. The conditions noted are these: 1 μM; out of the 85 kinases profiled.
A further test deals with LRRK2. The conditions noted are these: cited from earlier work.

PHK, sequence (Q16816 whole entry): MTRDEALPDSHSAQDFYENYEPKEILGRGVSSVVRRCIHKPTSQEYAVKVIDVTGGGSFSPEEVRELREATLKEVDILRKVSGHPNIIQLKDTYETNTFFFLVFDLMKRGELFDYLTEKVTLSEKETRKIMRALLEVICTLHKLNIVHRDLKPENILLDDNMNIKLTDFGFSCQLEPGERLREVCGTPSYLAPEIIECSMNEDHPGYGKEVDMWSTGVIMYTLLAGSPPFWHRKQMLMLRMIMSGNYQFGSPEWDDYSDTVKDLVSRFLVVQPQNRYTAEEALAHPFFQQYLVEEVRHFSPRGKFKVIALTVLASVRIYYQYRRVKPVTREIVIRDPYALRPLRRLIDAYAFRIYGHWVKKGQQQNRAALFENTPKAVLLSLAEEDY
CK2, sequence (P68400 whole entry): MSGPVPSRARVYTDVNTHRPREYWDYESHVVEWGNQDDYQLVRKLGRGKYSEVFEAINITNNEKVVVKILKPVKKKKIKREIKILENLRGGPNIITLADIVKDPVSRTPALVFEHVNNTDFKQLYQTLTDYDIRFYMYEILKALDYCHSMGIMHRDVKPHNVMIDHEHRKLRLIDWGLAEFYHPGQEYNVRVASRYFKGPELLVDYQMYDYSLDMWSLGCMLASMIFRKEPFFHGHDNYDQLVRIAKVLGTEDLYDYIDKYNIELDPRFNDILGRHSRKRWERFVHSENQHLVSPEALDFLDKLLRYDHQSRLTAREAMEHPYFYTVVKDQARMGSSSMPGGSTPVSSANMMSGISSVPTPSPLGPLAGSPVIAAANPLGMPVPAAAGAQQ
Aurora B kinase, sequence (Q96GD4 whole entry): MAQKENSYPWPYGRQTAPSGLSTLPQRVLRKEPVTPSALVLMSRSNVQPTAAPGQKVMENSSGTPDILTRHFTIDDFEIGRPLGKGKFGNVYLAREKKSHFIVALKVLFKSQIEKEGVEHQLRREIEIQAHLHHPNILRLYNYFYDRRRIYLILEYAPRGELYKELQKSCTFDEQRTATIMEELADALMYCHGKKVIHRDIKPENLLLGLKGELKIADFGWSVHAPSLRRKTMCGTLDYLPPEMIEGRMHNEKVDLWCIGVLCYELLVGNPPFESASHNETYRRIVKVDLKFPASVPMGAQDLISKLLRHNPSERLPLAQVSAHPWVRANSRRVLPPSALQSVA
SmMLCK, sequence (Q15746 923-1914): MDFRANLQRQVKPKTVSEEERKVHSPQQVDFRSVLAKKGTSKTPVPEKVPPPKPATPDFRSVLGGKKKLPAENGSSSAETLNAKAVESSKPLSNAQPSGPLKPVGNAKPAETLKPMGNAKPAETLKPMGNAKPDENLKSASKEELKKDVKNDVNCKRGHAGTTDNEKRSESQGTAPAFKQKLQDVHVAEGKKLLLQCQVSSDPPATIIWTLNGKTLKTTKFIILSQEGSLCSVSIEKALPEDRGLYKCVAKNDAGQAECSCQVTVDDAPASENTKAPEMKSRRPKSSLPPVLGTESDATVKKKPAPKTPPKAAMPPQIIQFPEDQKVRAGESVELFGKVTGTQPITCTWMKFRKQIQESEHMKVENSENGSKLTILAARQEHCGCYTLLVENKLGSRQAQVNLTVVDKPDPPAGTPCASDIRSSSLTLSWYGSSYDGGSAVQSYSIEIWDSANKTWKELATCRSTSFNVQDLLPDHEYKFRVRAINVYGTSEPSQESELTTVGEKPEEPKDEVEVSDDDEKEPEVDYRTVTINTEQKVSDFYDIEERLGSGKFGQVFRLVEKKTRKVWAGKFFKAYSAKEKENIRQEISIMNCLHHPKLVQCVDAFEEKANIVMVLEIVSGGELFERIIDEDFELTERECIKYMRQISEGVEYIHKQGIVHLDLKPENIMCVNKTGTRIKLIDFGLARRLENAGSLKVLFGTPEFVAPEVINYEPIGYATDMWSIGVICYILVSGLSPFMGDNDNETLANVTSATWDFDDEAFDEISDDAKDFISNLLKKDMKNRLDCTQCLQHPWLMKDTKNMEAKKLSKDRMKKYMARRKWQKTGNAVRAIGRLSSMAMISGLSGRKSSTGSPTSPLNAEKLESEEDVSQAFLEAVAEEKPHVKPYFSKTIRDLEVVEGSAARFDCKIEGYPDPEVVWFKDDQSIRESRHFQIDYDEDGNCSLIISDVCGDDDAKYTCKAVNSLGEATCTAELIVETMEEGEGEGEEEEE

For the compound `CCN(CC)CCNC(=O)c1c(C)[nH]c(/C=C2\C(=O)Nc3ccc(F)cc32)c1C` [Sunitinib, sunitinib], the remaining activity at 1 µM at SGK1 worked out at 26 ± 5%; on PKCα it was 77 ± 9%; at SmMLCK, 26 ± 3%; on BRSK2, 40 ± 6%; on CK2, 72 ± 1%; at TTK it was 72 ± 6%. Moreover, the figures for the remaining activity at 1 µM at IRR and on IGF-1R were 77 ± 24% and 33 ± 6%, respectively. The remaining activity at 0.1 µM worked out at 11 ± 1% at PHK, 72 ± 5% on Aurora B kinase and 77 ± 2% at FGFR1. Further, in the test with AMPK, the “percentage of kinase activity compared with control” value was 51 ± 3%. Further, the “effect on ERM protein phosphorylation” value in test [1] was “did not inhibit”. The “effect on protein kinase activity in LRRK2 immunoprecipitate” value in test [2] is “suppressed”. Besides, in test [3], the “number of kinases significantly inhibited” value is reported as 12. Moreover, in the test on LRRK2, the half-inhibitory concentration (IC50) was […].
